Residues, ends and D or L forms follow the SMILES beside them. *: point of attachment. Cbz = O=C(OCc1ccccc1)*; CH2F = FC*

The target in series [1] is T1, ICE (caspase-1) (Mus musculus, UniProt P29452).
T1 sequence (P29452 119-296 limits assumed): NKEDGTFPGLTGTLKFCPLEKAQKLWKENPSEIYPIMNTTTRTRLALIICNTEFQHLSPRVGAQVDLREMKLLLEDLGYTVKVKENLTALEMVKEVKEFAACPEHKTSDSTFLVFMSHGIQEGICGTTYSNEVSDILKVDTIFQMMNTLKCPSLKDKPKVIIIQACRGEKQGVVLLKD
T1 sequence (P29452 315-402 limits assumed): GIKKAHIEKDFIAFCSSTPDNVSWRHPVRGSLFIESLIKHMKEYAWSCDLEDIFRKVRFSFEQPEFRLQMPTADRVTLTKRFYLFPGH

The test system of series [2] is RAW 264.7 murine macrophage cell line. It counts as cell-based. The following applies: 24 h.

On to `COC(=O)CC[C@H](NC(=O)[C@H](Cc1c[nH]c2ccccc12)NC(=O)OCc1ccccc1)C(=O)N[C@@H](Cc1cnc[nH]1)C(=O)N[C@@H](CC(=O)OC)C(=O)CF` [Z-WEHD-FMK] (Cbz-WE(OMe)HD(OMe)-CH2F), for which, in series [1], the “Effect on cell viability” value is “no observable effect”. Also, in series [1] (24 hours), the “Blocking of IL-1β production induced by anthrax LT” value is approximately 70% and the “Blocking of IL-18 production induced by anthrax LT” value is approximately 70%.

As for lipopolysaccharide [LPS], in series [2], the “Dose needed for induction of IL-1β comparable to that resulting from anthrax LT treatment” value is reported as not below 100 EU/ml and the “Induction of IL-18” value is “not induced”.

The record behind these values is patent US7871790B2 (priority 2004, dated 2011).
